Measured values from patent publication US9604940B2 (Chroma Therapeutics Ltd., priority 2012, dated 2017).
Where a name gives a salt, the structure may show the parent alone.

What was measured:
CSF1R (FMS) = biological target: T1, CSF1R (FMS) (Homo sapiens, UniProt P07333); experiment: CSF1R (FMS) kinase activity, Z'-LYTE biochemical assay (Invitrogen); conditions: ATP at or close to Km, 60 minute reaction at room temperature, read-out: Inhibitor activity versus CSF-1
T1 construct: purchased Invitrogen (Paisley, UK)
T1 sequence (P07333 20-972): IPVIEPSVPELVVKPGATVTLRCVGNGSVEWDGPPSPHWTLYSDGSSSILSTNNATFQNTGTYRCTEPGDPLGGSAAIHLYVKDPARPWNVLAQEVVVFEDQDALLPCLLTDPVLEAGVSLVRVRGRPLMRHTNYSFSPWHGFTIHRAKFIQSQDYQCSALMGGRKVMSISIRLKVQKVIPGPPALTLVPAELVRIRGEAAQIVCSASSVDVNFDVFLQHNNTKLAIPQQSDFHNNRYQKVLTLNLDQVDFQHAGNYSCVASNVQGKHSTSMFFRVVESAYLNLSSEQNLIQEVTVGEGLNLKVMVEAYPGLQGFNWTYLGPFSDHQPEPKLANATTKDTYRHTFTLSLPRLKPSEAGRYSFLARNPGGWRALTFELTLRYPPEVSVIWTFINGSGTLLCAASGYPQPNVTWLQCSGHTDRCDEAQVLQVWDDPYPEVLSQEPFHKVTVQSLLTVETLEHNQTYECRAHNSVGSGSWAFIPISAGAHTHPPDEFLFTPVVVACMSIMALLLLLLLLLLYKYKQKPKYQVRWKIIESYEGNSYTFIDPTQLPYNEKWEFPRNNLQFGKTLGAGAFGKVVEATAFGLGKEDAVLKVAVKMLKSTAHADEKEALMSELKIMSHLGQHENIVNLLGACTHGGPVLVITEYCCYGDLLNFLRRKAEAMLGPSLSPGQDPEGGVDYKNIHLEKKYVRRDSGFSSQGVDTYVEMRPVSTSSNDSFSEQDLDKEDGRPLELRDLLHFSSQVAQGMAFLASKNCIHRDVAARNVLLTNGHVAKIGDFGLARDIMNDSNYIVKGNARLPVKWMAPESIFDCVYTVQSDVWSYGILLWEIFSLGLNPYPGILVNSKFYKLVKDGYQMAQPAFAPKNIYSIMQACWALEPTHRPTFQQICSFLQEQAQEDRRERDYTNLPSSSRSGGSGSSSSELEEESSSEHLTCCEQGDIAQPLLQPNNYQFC
Method: CSF1R (FMS) Kinase Activity
The ability of compounds to inhibit CSF1R (FMS) kinase activity was measured in an assay performed by Invitrogen (Paisley, UK). The Z′-LYTE™ biochemical assay employs a fluorescence-based, coupled-enzyme format and is based on the differential sensitivity of phosphorylated and non-phosphorylated peptides to proteolytic cleavage. The peptide substrate is labelled with two fluorophores—one at each end—that make up a FRET pair. In the primary reaction, the kinase transfers the gamma-phosphate of ATP to a single […] residue in a synthetic FRET-peptide. In the secondary reaction, a site-specific protease recognizes and cleaves non-phosphorylated FRET-peptides. Phosphorylation of FRET-peptides suppresses cleavage by the Development Reagent. Cleavage disrupts FRET between the donor (i.e. coumarin) and acceptor (i.e. fluorescein) fluorophores on the FRET-peptide, whereas uncleaved, phosphorylated FRET-peptides maintain FRET. A […] method, which calculates the ratio (the Emission Ratio) of donor emission to acceptor emission after excitation of the donor fluorophore at 400 nm, is used to quantitate reaction progress.
The final 10 μL Kinase Reaction consists of 0.12-12.3 ng CSF1R (FMS), 2 μM Tyr 01 Peptide and ATP in 50 mM HEPES pH 7.5, 0.01% BRIJ-35, 10 mM MgCl2, 1 mM EGTA. The assay is performed at an ATP concentration at, or close to, the Km. After the 60 minute Kinase Reaction incubation at room temperature, 5 μL of a 1:256 dilution of Development Reagent is added. The assay plate is incubated for a further 60 minutes at room temperature and read on a fluorescence plate reader.
Duplicate data points are generated from a ⅓ log dilution series of a stock solution of test compound in DMSO. Nine dilutions steps are made from a top concentration of 10 mM, and a ‘no compound’ blank is included. Data is collected and analysed using XLfit software from IDBS. The dose response curve is curve fitted to model number 205 (sigmoidal dose-response model). From the curve generated, the concentration giving 50% inhibition is determined and reported.

MCP-1 = experiment: MCSF-stimulation of human whole blood, MCP-1 levels by sandwich ELISA; assay type: cell-based; conditions: inhibitor 2 hours before MCSF 50 ng/ml, 22 hrs, MCP-1 in cell-free supernatants, read-out: Inhibitor activity versus MCP-1
Method: Macrophage Colony-Stimulating Factor (MCSF)-Stimulation of Human Whole Blood
Whole blood was taken by venous puncture using heparinised vacutainers (Becton Dickinson) and diluted in an equal volume of RPMI1640 tissue culture media (Sigma). 100 μl was plated in V-bottomed 96 well tissue culture treated plates. 2 hours after the addition of the inhibitor in 100 μl of RPMI1640 media, the blood was stimulated with MCSF (Peprotech: #300-25-10 uG) at a final concentration of 50 ng/ml and incubated at 37° C. in 5% CO2 for 22 hrs. MCP-1 levels were measured from cell-free supernatants by sandwich ELISA developed from MCP-1/CCL2 Duoset (R&D Systems #DY279). Additional reagents required for ELISA were purchased from Sigma, (BSA: A3059, 10×PBS: D1408, Tween20: P5927) R&D Systems, (colour reagent: #DY999 and stop solution: #DY994) and Costar (96-well EIA plates: #2592). Assays were carried out following the manufacturer's instructions with the following modifications: Cell-free supernatants were diluted 30:70 in reagent diluent before assay. All incubations except capture antibody were carried out with shaking at 550 rpm. 3 washes were carried out between steps, and incubation times were blocking 1.5 hr, sample/standard and detection antibody incubations 2 hr, HRP incubation 30 min, colour development 20 min. • IC50 values were allocated to one of five ranges as follows: • Range A: IC50<100 nM • Range B: 100 nM<IC50<300 nM • Range C: 300 nM<1050<1000 nM • Range D: 1000 nM<IC50<5000 nM • Range E: IC50>5000 nM • NT=not tested

SMILES | IC50 (CSF1R (FMS)) [nM] | IC50 (MCP-1) [nM]
Nc1ncc(-c2ccc(C(=O)N3CCNC(C(=O)OC4CCCC4)C3)cc2)nc1NCc1c(Cl)cccc1Cl (stereo not drawn) [Example 3, Cyclopentyl 4-(4-{5-amino-6-[(2,6-dichlorobenzyl)amino]pyrazin-2-yl}benzoyl)piperazine-2-carboxylate] | 100 to 300 | 300 to 1000
CC(C)(C)OC(=O)[C@H]1CC(NC(=O)c2ccc(-c3cnc(N)c(NCc4c(Cl)cccc4Cl)n3)cc2)CCN1 (stereo partly drawn) [Example 4, tert-Butyl (2R)-4-[(4-{5-amino-6-[(2,6-dichlorobenzyl)amino]pyrazin-2-yl}benzoyl)amino]piperidine-2-carboxylate] | 100 to 300 | 
CC(C)(C)OC(=O)C1CN(C(=O)c2ccc(-c3cnc(N)c(NCc4c(Cl)cccc4Cl)n3)cc2)CCN1 (stereo not drawn) [Example 6, tert-Butyl 4-(4-{5-amino-6-[(2,6-dichlorobenzyl)amino]pyrazin-2-yl}benzoyl)piperazine-2-carboxylate] | 100 to 300 | 300 to 1000
Nc1ncc(-c2ccc(CNC3CCN[C@@H](C(=O)OC4CCCC4)C3)cc2)nc1NCc1c(Cl)cccc1Cl (stereo partly drawn) [Example 7, Cyclopentyl (2R)-4-[(4-{5-amino-6-[(2,6-dichlorobenzyl)amino]pyrazin-2-yl}benzyl)amino]piperidine-2-carboxylate] | < 100 | 100 to 300
Nc1ncc(-c2ccc(CNC3CCN[C@H](C(=O)OC4CCCC4)C3)cc2)nc1NCc1c(Cl)cccc1Cl (stereo partly drawn) [Example 8, Cyclopentyl (2S)-4-[(4-{5-amino-6-[(2,6-dichlorobenzyl)amino]pyrazin-2-yl}benzyl)amino]piperidine-2-carboxylate] | < 100 | 100 to 300
Nc1ncc(-c2ccc(CN3CCNC(C(=O)OC4CCCC4)C3)cc2)nc1NCc1c(Cl)cccc1Cl (stereo not drawn) [Example 9, Cyclopentyl 4-(4-{5-amino-6-[(2,6-dichlorobenzyl)amino]pyrazin-2-yl}benzyl)piperazine-2-carboxylate] | 300 to 1000 | < 100
Nc1ncc(-c2ccc(CN3CCN[C@H](C(=O)OC4CCCC4)C3)cc2)nc1NCc1c(Cl)cccc1Cl [Example 10, Cyclopentyl (2S)-4-(4-{5-amino-6-[(2,6-dichlorobenzyl)amino]pyrazin-2-yl}benzyl)piperazine-2-carboxylate] | 1000 to 5000 | < 100
CC(C)C[C@H](NCc1ccc(-c2cnc(N)c(NCc3c(Cl)cccc3Cl)n2)cc1)C(=O)OC(C)(C)C [Example 13, tert-Butyl N-(4-{5-amino-6-[(2,6-dichlorobenzyl)amino]pyrazin-2-yl}benzyl)-L-leucinate] | 1000 to 5000 | 
CC(C)C[C@H](NCc1ccc(-c2cnc(N)c(NCc3c(F)cccc3F)n2)cc1)C(=O)OC1CCCC1 [Example 15, Cyclopentyl N-(4-{5-amino-6-[(2,6-difluorobenzyl)amino]pyrazin-2-yl}benzyl)-L-leucinate] | > 5000 | 
CC(C)C[C@H](NCc1ccc(-c2cnc(N)c(NCc3c(F)cccc3F)n2)cc1)C(=O)OC(C)(C)C [Example 16, tert-Butyl N-(4-{5-amino-6-[(2,6-difluorobenzyl)amino]pyrazin-2-yl}benzyl)-L-leucinate] | 1000 to 5000 | 
Nc1ncc(-c2ccc(CNC3CCN[C@@H](C(=O)OC4CCCC4)C3)cc2)nc1NCc1c(F)cccc1Cl (stereo partly drawn) [Example 17, Cyclopentyl (2R)-4-[(4-{5-amino-6-[(2-chloro-6-fluorobenzyl)amino]pyrazin-2-yl}benzyl)amino]piperidine-2-carboxylate] | < 100 | 
CC(C)(C)OC(=O)[C@H]1CC(NCc2ccc(-c3cnc(N)c(NCc4c(F)cccc4F)n3)cc2)CCN1 (stereo partly drawn) [Example 24, tert-Butyl (2R)-4-[(4-{5-amino-6-[(2,6-difluorobenzyl)amino]pyrazin-2-yl}benzyl)amino]piperidine-2-carboxylate] | 300 to 1000 | 
CC(C)(C)OC(=O)C(C)(C)NCc1cccc(-c2cnc(N)c(NCc3c(Cl)cccc3Cl)n2)c1 [Example 41, tert-Butyl N-(3-{5-amino-6-[(2,6-dichlorobenzyl)amino]pyrazin-2-yl}benzyl)-2-methylalaninate formate salt] | 1000 to 5000 | 
Nc1ncc(-c2cccc(CCN3CCNC(C(=O)OC4CCCC4)C3)c2)nc1NCc1c(Cl)cccc1Cl (stereo not drawn) [Example 52, Cyclopentyl 4-[2-(3-{5-amino-6-[(2,6-dichlorobenzyl)amino]pyrazin-2-yl}phenyl)ethyl]piperazine-2-carboxylate] |  | 100 to 300
Nc1ncc(-c2cnn(CC(=O)NC3CCN[C@@H](C(=O)OC4CCCC4)C3)c2)nc1NCc1c(Cl)cccc1Cl (stereo partly drawn) [Example 53, Cyclopentyl (2R)-4-{[(4-{5-amino-6-[(2,6-dichlorobenzyl)amino]pyrazin-2-yl}-1H-pyrazol-1-yl)acetyl]amino}piperidine-2-carboxylate] | 100 to 300 | 
CC(C)(C)OC(=O)[C@H]1CC(NC(=O)Cn2cc(-c3cnc(N)c(NCc4c(Cl)cccc4Cl)n3)cn2)CCN1 (stereo partly drawn) [Example 54, tert-Butyl (2R)-4-{[(4-{5-amino-6-[(2,6-dichlorobenzyl)amino]pyrazin-2-yl}-1H-pyrazol-1-yl)acetyl]amino}piperidine-2-carboxylate] | 100 to 300 | 

Continued, values first:

IC50 (CSF1R (FMS)) [nM] | IC50 (MCP-1) [nM] | SMILES
< 100 | 300 to 1000 | Nc1ncc(-c2ccc(C(=O)NC3CCN[C@@H](C(=O)OC4CCCC4)C3)cc2)nc1NCc1c(Cl)cccc1Cl (stereo partly drawn) [Example 1, Cyclopentyl (2R)-4-[(4-{5-amino-6-[(2,6-dichlorobenzyl)amino]pyrazin-2-yl}benzoyl)amino]piperidine-2-carboxylate]
100 to 300 | 300 to 1000 | CN(C(=O)c1ccc(-c2cnc(N)c(NCc3c(Cl)cccc3Cl)n2)cc1)C1CCN[C@@H](C(=O)OC2CCCC2)C1 (stereo partly drawn) [Example 2]
< 100 | 1000 to 5000 | CN(C(=O)c1ccc(-c2cnc(N)c(NCc3c(Cl)cccc3Cl)n2)cc1)C1CCN[C@@H](C(=O)OC(C)(C)C)C1 (stereo partly drawn) [Example 5, tert-Butyl (2R)-4-[(4-{5-amino-6-[(2,6-dichlorobenzyl)amino]pyrazin-2-yl}benzoyl)(methyl)amino]piperidine-2-carboxylate]
300 to 1000 | < 100 | Nc1ncc(-c2ccc(CN3CCN[C@@H](C(=O)OC4CCCC4)C3)cc2)nc1NCc1c(Cl)cccc1Cl [Example 11, Cyclopentyl (2R)-4-(4-{5-amino-6-[(2,6-dichlorobenzyl)amino]pyrazin-2-yl}benzyl)piperazine-2-carboxylate]
> 5000 |  | CC(C)C[C@H](NCc1ccc(-c2cnc(N)c(NCc3c(Cl)cccc3Cl)n2)cc1)C(=O)OC1CCCC1 [Example 12, Cyclopentyl N-(4-{5-amino-6-[(2,6-dichlorobenzyl)amino]pyrazin-2-yl}benzyl)-L-leucinate]
 | 1000 to 5000 | CC(C)CN(Cc1ccc(-c2cnc(N)c(NCc3c(Cl)cccc3Cl)n2)cc1)C1CCN[C@@H](C(=O)OC2CCCC2)C1 (stereo partly drawn) [Example 29, Cyclopentyl (2R)-4-[(4-{5-amino-6-[(2,6-dichlorobenzyl)amino]pyrazin-2-yl}benzyl)(2-methylpropyl)amino]piperidine-2-carboxylate]
100 to 300 |  | Nc1ncc(-c2ccc(CN3CCNC(C(=O)OC4CCCC4)C3)nc2)nc1NCc1c(Cl)cccc1Cl (stereo not drawn) [Example 59, Cyclopentyl 4-[(5-{5-amino-6-[(2,6-dichlorobenzyl)amino]pyrazin-2-yl}pyridin-2-yl)methyl]piperazine-2-carboxylate]
